Values joined by “and” are separate entries in the source; they are usually repeats but may differ in a detail not shown here. Equal entries are not always repeated. “Also recorded” adds a separate entry of the source. Where two headings read alike, the source gives them in different places.
Columns and labels:
OAT1 = biological target: T1, OAT1 (Homo sapiens, UniProt Q4U2R8); assay: Uptake transporter inhibition assay, OAT1 (tenofovir)
T1 sequence (Q4U2R8 1-563): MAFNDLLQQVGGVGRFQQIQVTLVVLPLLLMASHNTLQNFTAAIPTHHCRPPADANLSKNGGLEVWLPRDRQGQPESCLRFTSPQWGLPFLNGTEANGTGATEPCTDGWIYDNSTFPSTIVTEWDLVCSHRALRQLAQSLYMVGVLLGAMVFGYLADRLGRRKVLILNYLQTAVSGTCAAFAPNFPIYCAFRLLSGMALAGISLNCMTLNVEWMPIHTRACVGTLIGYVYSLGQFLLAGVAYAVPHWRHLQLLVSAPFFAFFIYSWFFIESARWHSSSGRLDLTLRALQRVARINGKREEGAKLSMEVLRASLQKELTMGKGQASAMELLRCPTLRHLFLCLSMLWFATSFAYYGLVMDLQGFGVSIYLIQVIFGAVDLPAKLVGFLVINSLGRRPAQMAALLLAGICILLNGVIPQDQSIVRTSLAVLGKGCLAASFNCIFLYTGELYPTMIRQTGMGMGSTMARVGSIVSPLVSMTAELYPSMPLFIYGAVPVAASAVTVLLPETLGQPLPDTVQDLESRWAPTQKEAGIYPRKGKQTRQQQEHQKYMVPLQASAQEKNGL
Experimental: Uptake experiments were performed using HEK293 cells stably expressing the respective uptake transporters. The assays were conducted according to the actual SOLVO uptake transporter assay protocols (PR-ASY-UPT-General Protocol for Uptake Transporter Inhibition Assays).
Cells were cultured at 37° C. in a humidified atmosphere containing 5% CO2 and were plated onto standard 96-well tissue culture plates.
Before the experiment, the medium was removed, and the cells were washed twice with 100 μL of pre-warmed (37° C.) assay buffer listed in Table 15. The cells were pre-incubated at 37° C. for 30 minutes in assay buffer containing the test article at appropriate concentrations (Table 16), appropriate solvents for solvent controls and the reference inhibitor for reference inhibitor wells. After the pre-incubation step solutions were removed. Uptake experiments were performed at 37° C. in 50 μL of assay buffer containing the probe substrate and the test article or solvent and controls.
After the experiment, cells were washed twice with 100 μL of appropriate cold buffer and lysed with 150 μL scintillation cocktail. Radiolabeled probe substrate transport was determined by liquid scintillation counting.
Uptake of the probe substrate in control cells provided background activity values for all data points.

[1] = Experimental: Twelve male Wistar Han rats were divided into 4 groups, n=3 per group.
Dose solutions were prepared freshly on the day of study prior to dosing.
The animals were weighed immediately prior to dosing and the dose volume was calculated individually based the obtained body weight and the nominal dose volume. […] The test articles were administered either orally by gavage, or intraperitoneally by injection. The nominal dose volume was 10 mL/kg for both compounds and both routes.
Cage side observation was performed before and after dosing as well as at each scheduled sample collection. The observation included appearance, posture, behavior, morbidity and mortality. Abnormal findings, if any, were recorded in the study notebook and communicated with study director, veterinarian, and Supernus if necessary.
Approximately 100 μL blood was collected at each scheduled time point from jugular veins. The actual sample collection time was within 1 min. of the nominal time for collections prior to or at 1 hour, and within 5% of the nominal time for collections post 1 hour.
The blood samples were placed in pre-labeled micro-centrifuge tubes containing K2EDTA as anticoagulant and kept on ice, and then were processed to plasma within 30 minutes of collection by centrifugation at 4° C., 3000 g for 5 minutes, and then stored at −70±10° C. until analysis by LC-MS/MS.
Plasma concentrations below the LLOQ prior to Tmax were set to zero, and those after Tmax were excluded from PK calculation. The nominal dose and the nominal sample collection time were used for the calculation. The values of plasma concentrations and PK parameters are reported to three significant figures. The average values of each treatment group are presented as mean±SD.

[2] = test system: orexin/tTA; Tet-O diphtheria toxin A mice (DTA mice); format: in vivo, mouse; details: 6 h after dosing at ZT12
[3] = single IP Compound I-4 3.708 mg/kg, male Wistar Han rats, individual animals
[4] = single IP Compound I-4 3.708 mg/kg, male Wistar Han rats, mean
[5] = single PO Compound I-4 3.708 mg/kg, male Wistar Han rats, individual animals
[6] = single PO Compound I-4 3.708 mg/kg, male Wistar Han rats, mean

OC1(c2ccc(Cl)cc2)c2ccccc2C2=NCCN21 (centres unmarked) [Compound A, 5-(4-chlorophenyl)-2,3-dihydroimidazo[1,2-b]isoindol-5-ol, reference compound]
Relative transporter specific accumulation (OAT1; 3.00 μM nominal): 99.68 ± 2.39 % of control
Transporter specific accumulation (OAT1; 3.00 μM nominal): 2,392.67 ± 13.09 cpm
Relative transporter specific accumulation (OAT1; 30.00 μM nominal): 88.39 ± 4.23 % of control
Transporter specific accumulation (OAT1; 30.00 μM nominal): 2,121.67 ± 88.79 cpm
Maximum % inhibition (OAT1; OAT1, HEK293 cells, tenofovir (5 μM), NIO: no inhibition observed): NIO
inhibition at 3 μM (OAT1; human): 0%
inhibition at 30 μM (OAT1; human): 12%
maximum inhibition of OAT1-mediated tenofovir accumulation (OAT1; up to 100 μM (Compound A up to 30 μM)): did not inhibit; also recorded: not an in vitro inhibitor

COCCOC1(c2ccc(Cl)cc2)c2ccccc2C2=NCCN21 (centres unmarked) [Compound I-4]
plasma concentration of Compound I-4 ([1]; 0.500 h, single IP Compound I-4 3.708 mg/kg, male Wistar Han rats, individual animals): 90.3 ng/mL and 48.4 ng/mL and 115 ng/mL
plasma concentration of Compound I-4 ([1]; 0.500 h, single IP Compound I-4 3.708 mg/kg, male Wistar Han rats, mean): 84.6 ng/mL
plasma concentration of Compound I-4 ([1]; 0.500 h, single PO Compound I-4 3.708 mg/kg, male Wistar Han rats, mean): 9.01 ng/mL
plasma concentration of Compound I-4 ([1]; 2.00 h, single IP Compound I-4 3.708 mg/kg, male Wistar Han rats, individual animals): 96.7 ng/mL and 85.7 ng/mL and 119 ng/mL
plasma concentration of Compound I-4 ([1]; 2.00 h, single IP Compound I-4 3.708 mg/kg, male Wistar Han rats, mean): 100 ng/mL
plasma concentration of Compound I-4 ([1]; 2.00 h, single PO Compound I-4 3.708 mg/kg, male Wistar Han rats, mean): 6.06 ng/mL
plasma concentration of Compound I-4 ([1]; 4.00 h, single IP Compound I-4 3.708 mg/kg, male Wistar Han rats, individual animals): 54.6 ng/mL and 98.6 ng/mL and 61.1 ng/mL
plasma concentration of Compound I-4 ([1]; 4.00 h, single IP Compound I-4 3.708 mg/kg, male Wistar Han rats, mean): 71.4 ng/mL
plasma concentration of Compound I-4 ([1]; 4.00 h, single PO Compound I-4 3.708 mg/kg, male Wistar Han rats, mean): 2.75 ng/mL
plasma concentration of Compound I-4 ([1]; 8.00 h, single IP Compound I-4 3.708 mg/kg, male Wistar Han rats, mean): 31.7 ng/mL
plasma concentration of Compound I-4 ([1]; 8.00 h, single PO Compound I-4 3.708 mg/kg, male Wistar Han rats, individual animals): 1.40 ng/mL and 1.11 ng/mL and 1.53 ng/mL
plasma concentration of Compound I-4 ([1]; 8.00 h, single PO Compound I-4 3.708 mg/kg, male Wistar Han rats, mean): 1.35 ng/mL
plasma concentration of Compound I-4 ([1]; 24.0 h, single IP Compound I-4 3.708 mg/kg, male Wistar Han rats, individual animals): BQL
plasma concentration of Compound I-4 ([1]; 24.0 h, single PO Compound I-4 3.708 mg/kg, male Wistar Han rats, individual animals): BQL
plasma concentration of Compound I-4 ([1]; […] h, single IP Compound I-4 3.708 mg/kg, male Wistar Han rats, mean): 95.5 ng/mL
plasma concentration of Compound I-4 ([1]; […] h, single PO Compound I-4 3.708 mg/kg, male Wistar Han rats, mean): 6.98 ng/mL
Clinical observation (tolerability) ([1]; male Wistar Han rats, PO and IP, administered dosages): well tolerated
T1/2 of the administered compound ([1]; rat, in vivo, ip): 2.51 h
AUC0-inf of Compound I-4 [1, 3]: 567 ng·h/mL and 597 ng·h/mL
AUC0-last of Compound I-4 [1, 3]: 473 ng·h/mL and 599 ng·h/mL and 546 ng·h/mL
Cmax of Compound I-4 [1, 3]: 120 ng/mL and 98.6 ng/mL and 140 ng/mL
MRT0-inf of Compound I-4 [1, 3]: 4.58 h and 3.48 h
MRT0-last of Compound I-4 [1, 3]: 3.06 h and 4.10 h and 2.77 h
T1/2 of Compound I-4 [1, 3]: 2.90 h and 2.12 h
Tlast of Compound I-4 [1, 3]: 8.00 h
AUC0-inf of Compound I-4 [1, 4]: 582 ng·h/mL
AUC0-last of Compound I-4 [1, 4]: 539 ng·h/mL
Cmax of Compound I-4 [1, 4]: 120 ng/mL
MRT0-inf of Compound I-4 [1, 4]: 4.03 h
MRT0-last of Compound I-4 [1, 4]: 3.31 h
T1/2 of Compound I-4 [1, 4]: 2.51 h
Tlast of Compound I-4 [1, 4]: 8.00 h
Tmax of Compound I-4 [1, 4]: 1.50 h
AUC0-inf of Compound I-4 [1, 5]: 56.4 ng·h/mL
MRT0-inf of Compound I-4 [1, 5]: 2.61 h
MRT0-last of Compound I-4 [1, 5]: 3.86 h and 2.20 h and 4.46 h
T1/2 of Compound I-4 [1, 5]: 1.74 h
Tlast of Compound I-4 [1, 5]: 8.00 h
AUC0-last of Compound I-4 [1, 6]: 25.2 ng·h/mL
Cmax of Compound I-4 [1, 6]: 9.18 ng/mL
MRT0-last of Compound I-4 [1, 6]: 3.51 h
Tlast of Compound I-4 [1, 6]: 8.00 h
Tmax of Compound I-4 [1, 6]: 1.67 h
REM:NR ratios (effect) [2]: decreased REM:NR ratios
W consolidation (W bout duration, number of W bouts) [2]: Compound I-4 at 3 mg/kg consolidated W
body temperature (Tb) [2]: No significant effects on Tb were found
latency to REM (effect) [2]: Compound I-4 at 3 mg/kg significantly (p<0.05) increased the latency to REM
locomotor activity (LMA) [2]: increased significantly overall
total W or NREM time [2]: without any significant effects on total W or NREM
cataplexy (C) time ([2]; Compound I-19 0.3, 1, 3 mg/kg i.p., Compound I-4 0.3, 1, 3 mg/kg p.o., Des 5 mg/kg p.o.): significantly (p<0.05) decreased following Compound I-4 at the two highest doses (1 and 3 mg/kg)
REM time ([2]; same doses): significantly (p<0.05) decreased following Compound I-4 at the two highest doses (1 and 3 mg/kg)

Source: patent US20250108038A1 (priority 2023, published 2025)
